Data from US12018267B2, “Plants having increased tolerance to herbicides” (BASF SE, priority 2015, dated 2024).
Several values for one entry are separate records, joined by “and”; a condition that tells them apart may be missing. Identical values can stand only once.

Columns and labels:
Type in all cases: in vivo, Oryza sativa
[1] = system: wild type rice materials (O. sativa M2 Volano); experiment: Greenhouse foliar application, crop injury on wild type rice materials (Tables E10-1, E10-2); conditions: wild type rice (OsCESA WT)
Excerpt: (§1) Oryza sativa M2 Volano is a cellulose biosynthesis inhibitor susceptible rice risotto population that was subjected to sodium azide seed mutagenesis but was not tilled nor selected for CESA mutations. O. sativa Volano-M3-CESA1 and CESA3 mutants were selected from a subpopulation of O. sativa M2 Volano by sequencing CESA gene sequences in M2 plants and maintaining (producing seed through selfing) those individuals containing key mutations in these genes. The tolerance of the M3 CESA1 and CESA3 mutants was assessed using 6-(1-fluorocyclopentyl)-N2-(2,3,5,6-tetrafluorophenyl)-1,3,5-triazine-2,4-diamine, together with 1.0% DASH® EC adjuvant (BASF). The tolerance of M4 CESA1 and CESA3 mutants was assessed using 6-cyclopentyl-N4-(2,3,4,5,6-pentafluorophenyl)-1,3,5-triazine-2,4-diamine, together with 1.0% DASH® EC adjuvant (BASF).
(§2) M3 seed, which were harvested from tilled and selected individuals containing mutations in the CESA1 and CESA3 genes, were grown in the greenhouse under natural light conditions supplemented with 400 W sodium halide lamps under a 16 hr day length. Day/night temperatures were 26 and 20° C., respectively. The number of M3 plants from each line varied between 2 and 16, depending on seed availability and germination. A non-selective CBI, azine 6-(1-fluorocyclopentyl)-N2-(2,3,5,6-tetrafluorophenyl)-1,3,5-triazine-2,4-diamine, formulated with 1.0% DASH in a water volume of 375 L/ha was applied early post-emergent (one to two leaf stage) at a rate of 250 g ai/ha to M3 CESA1 and CESA3 mutant rice plants growing in soil in the greenhouse. Only plants originating from lines having more than four seeds were subjected to herbicide treatment. CESA mutant lines with four or fewer seeds were selfed for an additional generation and then tested at the M4 generation with 6-cyclopentyl-N4-(2,3,4,5,6-pentafluorophenyl)-1,3,5-triazine-2,4-diamine. M4 plants were grown under similar conditions as M3 plants and treated with 250 g ai/ha or 500 g ai/ha of 6-cyclopentyl-N4-(2,3,4,5,6-pentafluorophenyl)-1,3,5-triazine-2,4-diamine. Previous kill curve greenhouse tests had identified that a rate of 250 g ai/ha of 6-(1-fluorocyclopentyl)-N2-(2,3,5,6-tetrafluorophenyl)-1,3,5-triazine-2,4-diamine and a rate of 250 g ai/ha 6-cyclopentyl-N4-(2,3,4,5,6-pentafluorophenyl)-1,3,5-triazine-2,4-diamine, both with 1.0% DASH, were sufficient doses to kill O. sativa M2 Volano check plants. […] Plants were assessed for crop injury, using a scale from 0% injury to 100% injury, at 11 and 21 days after treatment (DAT) for M3 plants applied with 6-(1-fluorocyclopentyl)-N2-(2,3,5,6-tetrafluorophenyl)-1,3,5-triazine-2,4-diamine and 36 DAT for M4 plants applied with 6-cyclopentyl-N4-(2,3,4,5,6-pentafluorophenyl)-1,3,5-triazine-2,4-diamine. Plants without any symptoms were recorded as “0%” injury. Increasing levels of reduced leaf mass and reduced stalk stiffness, with respect to the untreated control plants, were recorded in the range of “1 to 49%” injury. Increasing levels of leaf abnormalities and leaf necrosis, along with increased levels of lodging, relative to the untreated control plants, were recorded in the range of “50 to 85%” injury. Dead or dying plants with necrosis of the apex and severe lodging were recorded between “86-100%”. Data on individual plants was assessed and recorded due to the low number of individuals per line and the fact that the CESA mutations in the M2 generation were heterozygous and therefore segregating at the M3 and M4 generations. […]

[2] = system: O. sativa M2 Volano check plants; experiment: Previous kill curve greenhouse tests on rice check plants; conditions: with 1.0% DASH
Experimental: M3 seed, which were harvested from tilled and selected individuals containing mutations in the CESA1 and CESA3 genes, were grown in the greenhouse under natural light conditions supplemented with 400 W sodium halide lamps under a 16 hr day length. Day/night temperatures were 26 and 20° C., respectively. The number of M3 plants from each line varied between 2 and 16, depending on seed availability and germination. […] Plants were assessed for crop injury, using a scale from 0% injury to 100% injury, at 11 and 21 days after treatment (DAT) for M3 plants applied with 6-(1-fluorocyclopentyl)-N2-(2,3,5,6-tetrafluorophenyl)-1,3,5-triazine-2,4-diamine and 36 DAT for M4 plants applied with 6-cyclopentyl-N4-(2,3,4,5,6-pentafluorophenyl)-1,3,5-triazine-2,4-diamine. Plants without any symptoms were recorded as “0%” injury. Increasing levels of reduced leaf mass and reduced stalk stiffness, with respect to the untreated control plants, were recorded in the range of “1 to 49%” injury. Increasing levels of leaf abnormalities and leaf necrosis, along with increased levels of lodging, relative to the untreated control plants, were recorded in the range of “50 to 85%” injury. Dead or dying plants with necrosis of the apex and severe lodging were recorded between “86-100%”. […]

[3] = system: Rice M4 CESA1 and CESA3 mutants; experiment: Greenhouse foliar application, crop injury on tilled Rice M4 generation cellulose synthase mutants (Table E10-2)
Excerpt: as §1, §2

[4] = Rice M4 OsCesA1 S827N (SEQ ID 51), parental plant Hom, 250 g ai/ha
[5] = Rice M4 OsCesA1 T952I (SEQ ID 51), parental plant Het, 500 g ai/ha

| SMILES | Crop Injury Assessment (%) at 20 DAT ([1]; foliar application 250 g ai/ha, 20 DAT) [%] | rate sufficient to kill O. sativa M2 Volano check plants [2] [g ai/ha] | Crop injury assessment (%) at 23 DAT [3, 4] [%] | Crop injury assessment (%) at 36 DAT [3, 4] [%] | Crop injury assessment (%) at 23 DAT ([3]; Rice M4 OsCesA1 T952I (SEQ ID 51), parental plant Het, 250 g ai/ha) [%] | Crop injury assessment (%) at 23 DAT [3, 5] [%] | Crop injury assessment (%) at 36 DAT [3, 5] [%] | Crop injury assessment (%) at 23 DAT ([1]; foliar application 250 g ai/ha) | Crop injury assessment (%) at 36 DAT ([1]; foliar application 250 g ai/ha) | Crop injury assessment (%) at 23 DAT ([1]; foliar application 500 g ai/ha) | Crop injury assessment (%) at 36 DAT ([1]; foliar application 500 g ai/ha) [%] |
| --- | --- | --- | --- | --- | --- | --- | --- | --- | --- | --- | --- |
| Nc1nc(Nc2c(F)c(F)cc(F)c2F)nc(C2(F)CCCC2)n1 [6-(1-fluorocyclopentyl)-N2-(2,3,5,6-tetrafluorophenyl)-1,3,5-triazine-2,4-diamine] | 100 | 250 | – | – | – | – | – | – | – | – | – |
| Nc1nc(Nc2c(F)c(F)c(F)c(F)c2F)nc(C2CCCC2)n1 [6-cyclopentyl-N4-(2,3,4,5,6-pentafluorophenyl)-1,3,5-triazine-2,4-diamine] | – | 250 | 0 | 0 | 0 | 10 | 10 | 75% and 65% | 70% and 95% | 98% and 95% | 100 |
